Source: patent US10479752B2, “Deuterated tetramethyl dioic acids, compositions comprising them and uses thereof” (SYNDROMEX LTD., priority 2011, dated 2019)
Marks after values point to notes of the source that are not given here.

Test: Chemical and isotopic stability as solutions in DMSO/phosphate buffered saline over 48 hours
Conditions: for chemical purity (HPLC area percent) with respect to related substances: all samples through the study; for analyte recovered, yield: summary over the study; for disenrichment of the product (isotopic stability): throughout the time period of the study
[1] = DMSO/PBS solution, 37° C., 24 h
[2] = DMSO/PBS solution, 37° C., 48 h
[3] = DMSO/PBS solution, 37° C., 96 h
[4] = Original Sample (before the stability study)

SMILES	GC/MS IE (isotopic enrichment) (DMSO/PBS solution, 37° C., 0 h) [%]	HPLC Area Percentage (DMSO/PBS solution, 37° C., 0 h) [%]	HPLC Assay (DMSO/PBS solution, 37° C., 0 h) [%]	GC/MS IE (isotopic enrichment) (DMSO/PBS solution, 37° C., 2 h) [%]	HPLC Area Percentage (DMSO/PBS solution, 37° C., 2 h) [%]	HPLC Assay (DMSO/PBS solution, 37° C., 2 h) [%]	GC/MS IE (isotopic enrichment) (DMSO/PBS solution, 37° C., 4 h) [%]	HPLC Area Percentage (DMSO/PBS solution, 37° C., 4 h) [%]	HPLC Assay (DMSO/PBS solution, 37° C., 4 h) [%]	GC/MS IE (isotopic enrichment) [1] [%]	HPLC Area Percentage [1] [%]	HPLC Assay [1] [%]	GC/MS IE (isotopic enrichment) [2] [%]	HPLC Area Percentage [2] [%]	GC/MS IE (isotopic enrichment) [3] [%]	HPLC Area Percentage [3] [%]	analyte recovered, yield (DMSO/PBS solution, 37° C.)	HPLC Area Percentage [4] [%]	HPLC Assay [2]	disenrichment of the product (isotopic stability) (DMSO/PBS solution, 37° C.)	also measured
[2H]C([2H])(C(=O)O)C(C)(C)CCCCCCCCCCC(C)(C)C([2H])([2H])C(=O)O [Compound 2, 3,3,14,14-Tetramethyl-1,16-[2-D2,15-D2]hexadecanediol acid]	97.9	94.9	67.4	98.0	95.5	65.1	98.0	95.4	62.4	98.0	95.2	86.0	98.0	96.0	98.0	96.1	approximately 90%	97.0			HPLC Assay [3]: 76.8%; chemical purity (HPLC area percent) with respect to related substances (DMSO/PBS solution, 37° C.): around 96%
[2H]C([2H])([2H])C(CCCCCCCCCCC(CC(=O)O)(C([2H])([2H])[2H])C([2H])([2H])[2H])(CC(=O)O)C([2H])([2H])[2H] [Compound 3, 3,3,14,14-[D12]Tetramethyl-1,16-hexadecanedoic acid]	99.9	98.0	33.3	99.9	98.8	38.4	99.9	98.4	32.4	99.9	98.6	46.0	99.9	98.5			about 95%	100.0	50.2%	No disenrichment	
[2H]C([2H])([2H])C(CCCCCCCCCCCCC(C([2H])([2H])[2H])(C([2H])([2H])[2H])C([2H])([2H])C(=O)O)(C([2H])([2H])[2H])C([2H])([2H])C(=O)O [Compound 4, 3,3,16,16-[D16]Tetramethyl-1,18-octadecanedioic acid]	98.6	97.2	70.9	98.4	97.8	65.9	98.4	97.5	53.8	98.4	96.5	93.8	98.3	97.5				99.2	77.6%		stability results overall, in words (DMSO/PBS solution, 37° C., 48 h study): essentially the same as those for Compound 1; GC/MS IE (isotopic enrichment) [4]: 98.3%
[2H]C([2H])(C(=O)O)C(C)(C)CCCCCCCCCCCCC(C)(C)C([2H])([2H])C(=O)O [Compound 5, 3,3,16,16-tetramethyl-1,18-[2-D2,17-D2]octadecanedioic acid]	96.3	98.4	57.0	95.9	98.0	44.6	96.0	98.5	46.3	96.0	98.4	95.3	95.5	98.0	96.1	98.7	about 95%	100.0	213.8%*	No disenrichment	HPLC Assay [3]: 79.8%
[2H]C([2H])([2H])C(CCCCCCCCCCCCC(CC(=O)O)(C([2H])([2H])[2H])C([2H])([2H])[2H])(CC(=O)O)C([2H])([2H])[2H] [Compound 6, 3,3,16,16-[D12]Tetramethyl-1,18-octadecanedioic acid]	99.2	98.4	39.0	99.0	98.6	33.1	99.1	97.9	35.6	99.0	98.5	39.8	99.1	98.7			about 95%	100.0	59.6%	No disenrichment	
[2H]C([2H])([2H])C(CCCCCCCCCCCCCCC(C(=O)O)(C([2H])([2H])[2H])C([2H])([2H])[2H])(C(=O)O)C([2H])([2H])[2H] [Compound 8, 2,2,17,17-Tetramethyl(D12)-octadecanedioic acid]	99.9	95.1	60.0	99.9	94.3	68.7	99.9	94.1	56.9	99.9	96.0	66.8	99.9	97.2			about 85%	100.0	47.7%	No disenrichment	chemical purity (HPLC area percent) with respect to related substances (DMSO/PBS solution, 37° C.): around 95%; GC/MS IE (isotopic enrichment) [4]: 99.9%
